Calls of active or inactive are those of the source. The rule behind the calls is not given here.
Test system: rodent carcinogenicity bioassays, tumor incidence
Experiment: CCRIS carcinogenicity studies
Method in brief: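 Archive of carcinogenicity, mutagenicity, tumor promotion and tumor inhibition results drawn from journals, NCI reports and other sources, expert-reviewed; covers 1985-2011 and is no longer updated.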

How did the carcinogen call (Species: MOUSE, Strain/Sex: B6C3F1/MALE, Route: ORAL, Dose: 0, 8000, 16000 PPM IN DIET, Dose: 0, 8000, 16000 PPM IN DIET, Tumor Site: Type of Lesion: DUODENUM: ADENOMATOUS POLYP (NOS) OR ADENOCARCINOMA IN ADENOMATOUS POLYP) turn out when O=C1[C@H]2CC=CC[C@H]2C(=O)N1SC(Cl)(Cl)Cl was run?
The carcinogen call was “active; positive”.

And the carcinogen call (Species: MOUSE, Strain/Sex: SWISS/FEMALE, Route: DERMAL, Dose: 0, 450 UG IN 200 µL DMSO 3/WK FOR 52 WK (STUDY DURATION: 52 WK))?
Its carcinogen call is “inactive; negative”.

What about the carcinogen call (Species: Mouse, Strain/Sex: Swiss CD-1/Female (80/dose), Route: Oral, Dose: 0, 2000/6000, 6000/10,000, 10,000/16,000 ppm in diet for 113 wk (lower dose first 4 wk, higher dose for remainder of stu, Dose: 0, 2000/6000, 6000/10,000, 10,000/16,000 ppm in diet for 113 wk (lower dose first 4 wk, higher dose for remainder of stu) of the same compound?
The carcinogen call was “inactive; negative (purity of 90.7%; study details not given in source)”.

And the carcinogen call (Species: Mouse, Strain/Sex: Swiss CD-1/Male (80/dose), Route: Oral, Dose: 0, 2000/6000, 6000/10,000, 10,000/16,000 ppm in diet for 113 wk (lower dose first 4 wk, higher dose for remainder of stu, Dose: 0, 2000/6000, 6000/10,000, 10,000/16,000 ppm in diet for 113 wk (lower dose first 4 wk, higher dose for remainder of stu, Tumor Site: Type of Lesion: INTESTINE: Adenomas and adenocarcinomas in jejunum)?
Its carcinogen call is “active; positive (10,000 ppm group) (purity of 90.7%; study details n ot given in source”.

And the carcinogen call (Species: RAT, Strain/Sex: OSBORNE-MENDEL/FEMALE, Route: ORAL, Dose: 0, 2525, 6060 PPM IN DIET, TWA, Dose: 0, 2525, 6060 PPM IN DIET, TWA)?
Its carcinogen call is “inactive; negative”.

What about the carcinogen call (Species: RAT, Strain/Sex: OSBORNE-MENDEL/MALE, Route: ORAL, Dose: 0, 2525, 6060 PPM IN DIET, TWA, Dose: 0, 2525, 6060 PPM IN DIET, TWA) of the same compound?
The carcinogen call was “inactive; negative”.

And the carcinogen call (Species: Rat, Strain/Sex: CD/Female (50/group), Route: Oral, Dose: 0, 25, 100, 250 mg/kg/day in diet for 2 yr, Dose: 0, 25, 100, 250 mg/kg/day in diet for 2 yr)?
The carcinogen call was “inactive; negative (purity of 89%; study details not given in source)”.

What about the carcinogen call (Species: Rat, Strain/Sex: CD/Male (50/group), Route: Oral, Dose: 0, 25, 100, 250 mg/kg/day in diet for 2 yr, Dose: 0, 25, 100, 250 mg/kg/day in diet for 2 yr, Tumor Site: Type of Lesion: KIDNEY: Renal tubular adenomas or carcinomas (1, 1, 3, 4)) of the same compound?
The carcinogen call was “active; positive (purity of 89%; study details not given in source)”.

O=C/C=C/c1ccccc1 was tested. Which carcinogen call (Species: MOUSE, Strain/Sex: B6C3F1/MALE, FEMALE (50/GROUP), Route: ORAL, Dose: 0, 1000, 2100, 4100 PPM MICROENCAPSULATED IN DIET FOR 2 YR (STUDY DURATION: 2 YR), Dose: 0, 1000, 2100, 4100 PPM MICROENCAPSULATED IN DIET FOR 2 YR (STUDY DURATION: 2 YR), Tumor Site: Type of Lesion: NONE) did it give?
The carcinogen call was “inactive; negative”.

And the carcinogen call (Species: RAT, Strain/Sex: F344/N/MALE, FEMALE (50/GROUP), Route: ORAL, Dose: 0, 1000, 2100, 4100 PPM MICROENCAPSULATED IN DIET FOR 2 YR (STUDY DURATION: 2 YR), Dose: 0, 1000, 2100, 4100 PPM MICROENCAPSULATED IN DIET FOR 2 YR (STUDY DURATION: 2 YR), Tumor Site: Type of Lesion: NONE)?
Its carcinogen call is “inactive; negative”.

With c1ccc2c(c1)-c1ccc3ccc4cccc5cc-2c1c3c45 as the compound, how does the carcinogen call (Species: MOUSE, Strain/Sex: ICR/FEMALE, Route: DERMAL, Tumor Site: Type of Lesion: INTEGUMENTARY SYSTEM (SKIN): PAPILLOMA, CARCINOMA) read?
The carcinogen call was “active; positive”.

And the carcinogen call (Species: MOUSE, Strain/Sex: XVII-NC/Z/MALE, Route: SUBCUTANEOUS, Tumor Site: Type of Lesion: INJECTION SITE: SARCOMA)?
Its carcinogen call is “active; positive”.

What about the carcinogen call (Species: RAT, Strain/Sex: OSBORNE-MENDEL/FEMALE, Route: LUNG IMPLANT, Dose: 0, 0.16, 0.83, 4.15 MG IN BEESWAX/TRIOCTANOIN (STUDY DURATION: LIFETIME), Dose: 0, 0.16, 0.83, 4.15 MG IN BEESWAX/TRIOCTANOIN (STUDY DURATION: LIFETIME), Tumor Site: Type of Lesion: LUNG: EPIDERMOID CARCINOMA) of the same compound?
The carcinogen call was “active; positive”.

Which carcinogen call (Species: MOUSE, Strain/Sex: B6AKF1/MALE, Route: GAVAGE/ORAL, Dose: 100 MG/KG FROM DAY 7-28 OF LIFE THEN 300 MG/KG IN DIET, Tumor Site: Type of Lesion: LIVER: HEPATOMA) does the source give for ClCCOCCCl here?
The carcinogen call was “active; positive”.

And the carcinogen call (Species: MOUSE, Strain/Sex: B6C3F1/MALE,FEMALE, Route: GAVAGE/ORAL, Dose: 100 MG/KG FROM DAY 7-28 OF LIFE THEN 300 MG/KG IN DIET, Tumor Site: Type of Lesion: LIVER: HEPATOMA)?
Its carcinogen call is “active; positive”.

And the carcinogen call (Species: RAT, Strain/Sex: SPRAGUE-DAWLEY/MALE, Route: SUBCUTANEOUS, Dose: 0, 13.1, 4.36 UMOL IN DMSO 1/WK FOR 2 YR (STUDY DURATION: 2 YR), Dose: 0, 13.1, 4.36 UMOL IN DMSO 1/WK FOR 2 YR (STUDY DURATION: 2 YR))?
Its carcinogen call is “inactive; negative”.

What about the carcinogen call (Species: RAT, Strain/Sex: STRAIN-CD/MALE,FEMALE, Route: GAVAGE, Dose: 25, 50 MG/KG IN STEROID SUSPENDING VEHICLE 2/WK FOR 78 WK) of the same compound?
Its carcinogen call is “inactive; negative”.

Which results are given for CCC(=O)C(CC(C)N(C)C)(c1ccccc1)c1ccccc1 (stereo unspecified)?
carcinogen call (Species: MOUSE, Strain/Sex: B6C3F1/FEMALE, Route: ORAL, Dose: 0, 15, 60 MG/KG IN DIET FOR DURATION OF STUDY (STUDY DURATION: 108 WK), Dose: 0, 15, 60 MG/KG IN DIET FOR DURATION OF STUDY (STUDY DURATION: 108 WK)): inactive; negative; carcinogen call (Species: MOUSE, Strain/Sex: B6C3F1/MALE, Route: ORAL, Dose: 0, 15, 60 MG/KG IN DIET FOR DURATION OF STUDY (STUDY DURATION: 108 WK), Dose: 0, 15, 60 MG/KG IN DIET FOR DURATION OF STUDY (STUDY DURATION: 108 WK)): inactive; negative; carcinogen call (Species: RAT, Strain/Sex: F344/FEMALE, Route: ORAL, Dose: 0, 28, 88 MG/KG IN DIET FOR DURATION OF STUDY (STUDY DURATION: 108 WK), Dose: 0, 28, 88 MG/KG IN DIET FOR DURATION OF STUDY (STUDY DURATION: 108 WK)): inactive; negative; carcinogen call (Species: RAT, Strain/Sex: F344/MALE, Route: ORAL, Dose: 0, 16, 46 MG/KG IN DIET FOR DURATION OF STUDY (STUDY DURATION: 108 WK), Dose: 0, 16, 46 MG/KG IN DIET FOR DURATION OF STUDY (STUDY DURATION: 108 WK)): inactive; negative

For [Ni]=[Te], which carcinogen call (Species: RAT, Strain/Sex: F344/MALE, Route: INTRAMUSCULAR, Tumor Site: Type of Lesion: INJECTION SITE: SARCOMA) is on record?
The carcinogen call was “active; positive”.

Which carcinogen call (Species: RAT, Strain/Sex: SPRAGUE-DAWLEY/MALE,FEMALE, Route: ORAL, Dose: 0.25% IN DIET FOR 38 WK (AVE), Tumor Site: Type of Lesion: LIVER: CARCINOMA) does the source give for CCSCC[C@H](N)C(=O)O here?
Its carcinogen call is “active; positive”.

And the carcinogen call (Species: RAT, Strain/Sex: SPRAGUE-DAWLEY/MALE, Route: ORAL, Dose: 0, 0.05% IN CHOLINE-FREE DIET FOR 12 MO (STUDY DURATION: 12 MO), Tumor Site: Type of Lesion: LIVER: HEPATOCELLULAR CARCINOMA)?
Its carcinogen call is “active; positive”.

And the carcinogen call (Species: RAT, Strain/Sex: SPRAGUE-DAWLEY/MALE, Route: ORAL, Dose: 0, 0.1% IN CHOLINE-FREE DIET FOR 12 MO (STUDY DURATION: 12 MO))?
Its carcinogen call is “inactive; negative”.

What about the carcinogen call (Species: RAT, Strain/Sex: STRAIN-CD/MALE, Route: ORAL, Dose: 0.2% IN NONTOXIC PEANUT MEAL DIET FOR 380 D, Tumor Site: Type of Lesion: LIVER) of the same compound?
The carcinogen call was “active; positive”.

— PubChem BioAssay AID1259411 (Chemical Carcinogenesis Research Information System (CCRIS), 2018)
